Measurements from patent publication US12180139B2, “Method for preparing aminoalkanoic acid derivative containing biphenyl group” (AMTIXBIO CO., LTD., priority 2019, dated 2024).

Assays:
C. albicans = details: RPMI1640 broth, 35° C., 48 hours, visual reading; expressed as a range value
Experimental: An in vitro antifungal susceptibility test was performed in accordance with the US Clinical and Laboratory Standards Institute (CLSI) guidelines to measure the degree of antifungal activity of the compounds synthesized in the Preparation Examples against opportunistic pathogenic fungi. […] The MIC value (μg/ ? ) is expressed as a range value. Specifically, Candida species and Cryptococcus neoformans were incubated in a Sabouraud dextrose agar (SDA) (Sigma-Aldrich) solid medium for 24 and 48 hours, respectively to obtain single colonies. The obtained single colonies were suspended in 0.85% physiological saline to prepare fungal cell suspension (1 to 5×10^6 cells/ ? ). Fungal cells 2000-fold diluted in RPMI1640 broth (Sigma-Aldrich) were seeded on 96-well plates (5×10^2 to 2.5×10^3 cells/ ? , 195 ? /well). Serial two-fold dilutions (128, 64, 32, 16, 8, 4, 2, 1, and 0.5 μg/ ? ) of compounds were prepared by diluting the compounds synthesized according to the above preparation examples. Then, 5 ? from each dilution was added to the well of the 96-well plate containing fungal cell suspension to give a final suspension of 200 ? per well. […] As a positive control, amphotericin B (AMB), which is highly toxic to the human body but is known as a representative antifungal agent, was used.

A. fumigatus = details: visual reading; expressed as a range value
L. monocytogenes (+) = assay: Antibacterial MIC test (CLSI); assay type: cell-based; details: MHB liquid medium, 37° C., 24 hours
Experimental: (§1) The MIC test was conducted in accordance CLSI guidelines. […] As a positive control, Nofloxacin and Vancomycin were used.

B. cereus (+) = assay: Antibacterial MIC test (CLSI); assay type: cell-based; details: MHB liquid medium, 37° C., 24 hours
Experimental: as §1

E. coli (−) = assay: Antibacterial MIC test (CLSI); assay type: cell-based; details: MHB liquid medium, 37° C., 24 hours
Experimental: as §1

P. acnes (+) = assay: Antibacterial MIC test (CLSI); assay type: cell-based; details: MHB liquid medium, 37° C., 24 hours
Experimental: as §1

M. luteus (+) = assay: Antibacterial MIC test (CLSI); assay type: cell-based; details: MHB liquid medium, 37° C., 24 hours
Experimental: as §1

B. subtilis (+) = assay: Antibacterial MIC test (CLSI); assay type: cell-based; details: MHB liquid medium, 37° C., 24 hours
Experimental: as §1

B. coagulans (+) = assay: Antibacterial MIC test (CLSI); assay type: cell-based; details: MHB liquid medium, 37° C., 24 hours
Experimental: as §1

S. aureus enterica (−) = assay: Antibacterial MIC test (CLSI); assay type: cell-based; details: MHB liquid medium, 37° C., 24 hours
Experimental: as §1

C. neoformans = details: RPMI1640 broth, 35° C., 72 hours, visual reading; expressed as a range value
MRSA = assay: Antibacterial MIC test (CLSI); assay type: cell-based, Methicillin-resistant Staphylococcus aureus; details: MHB liquid medium, 37° C., 24 hours
Experimental: as §1

S. epidermidis (+) = details: MHB liquid medium, 37° C., 24 hours
S. aureus (+) = details: MHB liquid medium, 37° C., 24 hours
C. glabrata = details: RPMI1640 broth, 35° C., 48 hours, visual reading; expressed as a range value

SMILES | MIC (μg/mL) C. albicans (C. albicans) | MIC (μg/mL) A. fumigatus (A. fumigatus) | MIC L. monocytogenes (+) (L. monocytogenes (+)) | MIC B. cereus (+) (B. cereus (+)) | MIC E. coli (−) (E. coli (−)) | MIC P. acnes (+) (P. acnes (+)) | MIC M. luteus (+) (M. luteus (+)) | MIC B. subtilis (+) (B. subtilis (+)) | MIC B. coagulans (+) (B. coagulans (+)) | MIC S. aureus enterica (−) (S. aureus enterica (−)) | MIC (μg/mL) C. neoformans (C. neoformans) | MIC MRSA (MRSA) | MIC S. epidermidis (+) (S. epidermidis (+)) | MIC S. aureus (+) (S. aureus (+)) | MIC (μg/mL) C. glabrata (C. glabrata)
CCCCC(NC)C(=O)NCCc1ccc(-c2ccc(C(F)(F)F)cc2)cc1.Cl (racemic) [Compound 88, (R)/(S)-2-(methylamino)-N-(2-(4′-(trifluoromethyl)-[1,1′-biphenyl]-4-yl)ethyl)hexanamide hydrochloride] | 4~16 μg/mL | 4~16 μg/mL | <4 µg/mL | >64 µg/mL | 8 µg/mL | <4 µg/mL | >64 µg/mL | 32 µg/mL | <4 µg/mL | >64 µg/mL | 2~8 μg/mL | 8 µg/mL | 8 µg/mL | 8 µg/mL | 4~16 μg/mL
CCC(NC)C(=O)NCCc1ccc(-c2ccc(OC(F)(F)F)cc2)cc1.Cl (racemic) [Compound 89, (R)/(S)-2-(methylamino)-N-(2-(4′-(trifluoromethoxy)-[1,1′-biphenyl]-4-yl)ethyl)butanamide hydrochloride] | 8~32 μg/mL | 8~32 μg/mL | 16 µg/mL | >64 µg/mL | 16 µg/mL | 16 µg/mL | 16 µg/mL | 16 µg/mL | <4 µg/mL | 32 µg/mL | 8~32 μg/mL | 32 µg/mL | 16 µg/mL | 32 µg/mL | 8~32 μg/mL
CCCCC(NC)C(=O)NCCc1ccc(-c2ccc(OC(F)(F)F)cc2)cc1.Cl (racemic) [Compound 91, (R)/(S)-2-(methylamino)-N-(2-(4′-(trifluoromethoxy)-[1,1′-biphenyl]-4-yl)ethyl)hexanamide hydrochloride] | 4~16 μg/mL | 4~16 μg/mL | <4 µg/mL | 16 µg/mL | 8 µg/mL | <4 µg/mL | <4 µg/mL | 16 µg/mL | <4 µg/mL | 16 µg/mL | 2~8 μg/mL | 8 µg/mL | <4 µg/mL | 8 µg/mL | 4~16 μg/mL
